Data from US12129229B2, “Amarouciaxanthin A esters and uses thereof” (GAT THERAPEUTICS, S.L., priority 2021, dated 2024).

How the values were obtained:
[1] = ACX-Ac oral kinetic assay: plasma levels after intragastric administration; assay type: in vivo, mice Hsd:ICR (CD-1); conditions: female mice
Method: Immunocompetent mice from the strain Hsd:ICR (CD-1) (females, 6-7 weeks old from ENVIGO), were housed under sterile conditions at a constant temperature of 20-22° C. and relative humidity (45-65%) under daily cycles of light/darkness (12 hours). Sterilized water and food were available ad libitum.
Amarouciaxanthin A acetate (ACX-Ac) was dissolved at 1 mg/mL in a suitable vehicle and sterilized by filtration. Animals were weighted before the assay to determine the appropriate dispensing volume at 10 mL/kg. Formulation was administered once, intragastrically, at 10 mg/kg. Blood was collected at different time points, as stated in Table 1. It was extracted either through the facial vein or by intracardiac puncture (end points), on recipients containing 5 μL of 0.5 M EDTA.
Blood samples were analyzed by HPLC-MS/MS following proprietary analytical methods and the concentration of ACX in each sample was determined. A noncompartmental pharmacokinetic analysis was carried out using individual plasma concentrations versus sampling times by means of the PKPlus® software version 2.0 (Simulations Plus, Lancaster, CA 93534, USA).

rodent models = conditions: Biochem Biophys Res Commun, 2020, 528, 305-310; cited from earlier work

Compound | ACX-Ac in plasma samples ([1]; ACX-Ac 10 mg/kg once intragastrically, HPLC-MS/MS, 2 min to 72 h) | area under the concentration-time curve (AUCt) of ACX ([1]; analyte ACX after ACX-Ac 10 mg/kg once intragastrically, noncompartmental analysis) [µM·h] | Cmax ([1]; analyte ACX after ACX-Ac 10 mg/kg once intragastrically, noncompartmental analysis, read-out: maximum observed plasma concentration (Cmax) of ACX) [µM] | effect on hepatic oxidative stress, inflammation, and fibrosis (rodent models)
Amarouciaxanthin A acetate [ACX-Ac] | not detected | 80.59 | 9.35 | –
CC1=CC(=O)CC(C)(C)[C@@]1(O)CC(=O)/C(C)=C/C=C/C(C)=C/C=C/C=C(C)/C=C/C=C(\C)C=C=C1C(C)(C)C[C@H](O)C[C@@]1(C)O [ACX, Amarouciaxanthin A] | – | – | – | significantly inhibit hepatic oxidative stress, inflammation, and fibrosis
